How the values were obtained:
[1] = target: T1, Nuclear receptor ROR-gamma (Mus musculus, UniProt P51450); test: Antagonist activity at mouse Gal4-fused DBD RORgamma LBD (Pro-261-end) expressed in TRex-CHOK1 cells after 20 hrs by luciferase reporter gene assay; assay type: cell-based
T1 sequence (P51450 whole entry): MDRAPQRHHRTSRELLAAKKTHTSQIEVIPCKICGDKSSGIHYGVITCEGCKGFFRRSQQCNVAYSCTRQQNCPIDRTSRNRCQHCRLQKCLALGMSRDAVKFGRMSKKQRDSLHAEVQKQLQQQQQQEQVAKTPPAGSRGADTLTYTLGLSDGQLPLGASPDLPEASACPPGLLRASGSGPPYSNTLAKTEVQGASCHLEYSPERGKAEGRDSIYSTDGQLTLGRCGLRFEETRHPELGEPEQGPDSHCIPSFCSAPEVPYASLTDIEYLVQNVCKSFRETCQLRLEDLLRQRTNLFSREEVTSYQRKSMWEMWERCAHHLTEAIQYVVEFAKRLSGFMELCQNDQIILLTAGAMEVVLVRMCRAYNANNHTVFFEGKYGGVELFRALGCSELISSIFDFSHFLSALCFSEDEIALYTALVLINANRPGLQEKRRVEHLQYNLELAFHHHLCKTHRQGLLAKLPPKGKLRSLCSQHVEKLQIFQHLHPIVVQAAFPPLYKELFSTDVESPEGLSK

[2] = target: T2, Nuclear receptor ROR-beta (Rattus norvegicus, UniProt P45446); test: Antagonist activity at rat Gal4-fused DBD RORbeta LBD (Pro-205-end) expressed in TRex-CHOK1 cells after 20 hrs by luciferase reporter gene assay; assay type: cell-based
T2 sequence (P45446 whole entry): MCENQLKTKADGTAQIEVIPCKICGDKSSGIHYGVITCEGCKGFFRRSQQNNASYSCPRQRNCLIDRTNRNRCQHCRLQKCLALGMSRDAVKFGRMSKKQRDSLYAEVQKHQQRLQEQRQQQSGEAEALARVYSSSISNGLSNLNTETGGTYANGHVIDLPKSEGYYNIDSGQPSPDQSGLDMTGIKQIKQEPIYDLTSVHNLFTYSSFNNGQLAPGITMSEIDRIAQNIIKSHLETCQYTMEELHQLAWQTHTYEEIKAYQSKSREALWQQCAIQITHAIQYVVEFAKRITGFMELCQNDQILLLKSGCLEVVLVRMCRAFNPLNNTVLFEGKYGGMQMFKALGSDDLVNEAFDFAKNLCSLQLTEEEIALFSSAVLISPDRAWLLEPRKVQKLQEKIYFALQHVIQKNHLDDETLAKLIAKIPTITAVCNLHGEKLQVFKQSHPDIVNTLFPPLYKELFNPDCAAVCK

Fc1cccc(CC2=N[C@@H](CCCCN3C[C@H](Cc4ccccc4)N(CCc4ccccc4)C3=S)CN2)c1
IC50 [1]: 6.6 µM
IC50 [2]: 12.4 µM

CCCC1=N[C@@H](CCCCN2C[C@H](Cc3ccccc3)N(CCC3CC4CCC3C4)C2=S)CN1 (stereo not given in full)
IC50 [1]: 9.3 µM
IC50 [2]: 17 µM

CCCC1=N[C@@H](CCCCN2C[C@@H](C(C)(C)C)N(CCc3ccccc3)C2=S)CN1
IC50 [1]: 11.8 µM
IC50 [2]: 22.3 µM

S=C1N(CCCC[C@H]2CNC(CCC3CCCC3)=N2)C[C@H](Cc2ccccc2)N1CCc1ccccc1
IC50 [1]: 5.6 µM
IC50 [2]: 9.1 µM

COc1cccc(CC2=N[C@@H](CCCCN3C[C@H](Cc4ccccc4)N(CCc4ccccc4)C3=S)CN2)c1
IC50 [1]: 6.3 µM
IC50 [2]: 8.4 µM

C=CCC1=N[C@@H](CCCCN2C[C@H](Cc3ccccc3)N(CCc3ccccc3)C2=S)CN1
IC50 [1]: 10.2 µM
IC50 [2]: 14.3 µM

CC(CC1=N[C@@H](CCCCN2C[C@H](Cc3ccccc3)N(CCc3ccccc3)C2=S)CN1)c1ccccc1 (stereo not given in full)
IC50 [1]: 6.5 µM
IC50 [2]: 10.9 µM

CCCC1=N[C@@H](CCCCN2C[C@H](Cc3ccccc3)N(CCC3C4CC5CC(C4)CC3C5)C2=S)CN1 (stereo not given in full)
IC50 [1]: 7.9 µM
IC50 [2]: 10.7 µM

C/C=C/C1=N[C@@H](CCCCN2C[C@H](Cc3ccccc3)N(CCc3ccccc3)C2=S)CN1
IC50 [1]: 5.8 µM
IC50 [2]: 12.5 µM

Fc1ccc(CC2=N[C@@H](CCCCN3C[C@H](Cc4ccccc4)N(CCc4ccccc4)C3=S)CN2)cc1
IC50 [1]: 7.7 µM
IC50 [2]: 12.4 µM

Cc1cccc(CC2=N[C@@H](CCCCN3C[C@H](Cc4ccccc4)N(CCc4ccccc4)C3=S)CN2)c1
IC50 [1]: 6.3 µM
IC50 [2]: 9 µM

CCCC[C@H]1CN(CCCC[C@H]2CNC(CCC)=N2)C(=S)N1CCc1ccccc1
IC50 [1]: 10.2 µM
IC50 [2]: 17.5 µM

CCCC1=N[C@@H](CCCCN2C[C@H](Cc3ccccc3)N(CC3CCC(C)CC3)C2=S)CN1 (stereo not given in full)
IC50 [1]: 13.7 µM
IC50 [2]: 21.1 µM

S=C1N(CCCC[C@H]2CNC(CC3CCCCC3)=N2)C[C@H](Cc2ccccc2)N1CCc1ccccc1
IC50 [1]: 5.1 µM
IC50 [2]: 8.3 µM

CCCC1=N[C@@H](CCCCN2C[C@H](Cc3ccccc3)N(CCCC3CCCC3)C2=S)CN1
IC50 [1]: 6.4 µM
IC50 [2]: 10.2 µM

Reference: ChEMBL document CHEMBL4004870, “Synthesis of dihydroimidazole tethered imidazolinethiones and their activity as novel antagonists of the nuclear retinoic acid receptor-related orphan receptors (RORs)” (Bioorg Med Chem Lett, 2017)
